Measured values from ChEMBL document CHEMBL6083278, “Unnatural Amino Acids: Strategies, Designs, and Applications in Medicinal Chemistry and Drug Discovery” (J Med Chem, 2024).
In brackets after ≈: the same amount, converted by molar mass. Bridge positions count the residues as written; N and C are the ends. Square brackets hold non-standard residues; d marks the D form. Peptide text beside a SMILES is read from it. * marks the point of attachment. Bip = N[C@@H](Cc1ccc(-c2ccccc2)cc1)C(=O)O; dPhe(4-I) = N[C@H](Cc1ccc(I)cc1)C(=O)O; NMe2Val = CC(C)[C@@H](C(=O)*)N(C)C; NMeI = CC[C@H](C)[C@H](NC)C(=O)O; NMeT = CN[C@H](C(=O)O)[C@@H](C)O; 4Pal = N[C@@H](Cc1ccncc1)C(=O)O; Tic = O=C(O)[C@@H]1Cc2ccccc2CN1; NMeL = CN[C@@H](CC(C)C)C(=O)O; S5 = C=CCCC[C@](C)(N)C(=O)O; Hiv = CC(C)[C@H](O)C(=O)O; NMeS = CN[C@@H](CO)C(=O)O; Octanoyl = CCCCCCCC(=O)*; dNMeA = CN[C@H](C)C(=O)O; Sar = CNCC(=O)O

Tests used:
[1] = Inhibition of GABA-A receptor (unknown origin); set-up: species or system Homo sapiens
Melanocortin receptor 3 = Melanocortin receptor 3 (Homo sapiens, UniProt P41968); test: Inhibition of MC3R (unknown origin)
[2] = target: G-protein coupled receptor 52 (Homo sapiens, UniProt Q9Y2T5); test: Agonist activity at human GPR52 expressed in CHO cells assessed as increase in intracellular cAMP level incubated for 30 mins by Alphascreen assay; type: functional, cell-based
Replicase polyprotein 1a = Replicase polyprotein 1a (Severe acute respiratory syndrome-related coronavirus, UniProt P0C6U8); test: Inhibition of SARS-CoV MPro using Dabcyl-KTSAVLQSGFRKM-E(Edans)-NH2 as substrate preincubated for 15 mins followed by substrate addition measured after 30 mins by FRET assay
Candida albicans = test: Antifungal activity against Candida albicans ATCC 10231 assessed as fungal growth inhibition; type: functional, organism-based
Cryptococcus neoformans = test: Antifungal activity against Cryptococcus neoformans ATCC 32045 assessed as inhibition of fungal growth incubated for 72 hrs by broth microdilution method; type: functional
Enterococcus faecalis = test: Antibacterial activity against Enterococcus faecalis ATCC 29212 assessed as bacterial growth inhibition by agar diffusion assay; type: functional
Staphylococcus aureus [3] = test: Antibacterial activity against Staphylococcus aureus assessed as reduction in microbial growth by CLSI based broth microdilution method; type: functional
Escherichia coli [4] = test: Antimicrobial activity against Escherichia coli ATCC 25922 assessed as reduction in microbial growth after 24 hrs by CLSI based Mueller-Hinton broth assay; type: functional
Klebsiella pneumoniae = test: Antimicrobial activity against Klebsiella pneumoniae ATCC 13882 assessed as reduction in microbial growth after 24 hrs by CLSI based Mueller-Hinton broth assay; type: functional
Pseudomonas aeruginosa [5] = test: Antimicrobial activity against Pseudomonas aeruginosa ATCC 27853 assessed as reduction in microbial growth after 24 hrs by CLSI based Mueller-Hinton broth assay; type: functional
Acinetobacter baumannii [6] = test: Antibacterial activity against Acinetobacter baumannii ATCC 17978 assessed as reduction in microbial growth after 24 hrs by CLSI based Mueller-Hinton broth assay; type: functional
Escherichia coli [7] = test: Antibacterial activity against Escherichia coli K12 assessed as reduction in bacterial growth incubated for 16 hrs by Broth micro-dilution assay; type: functional
Staphylococcus aureus [8] = test: Antibacterial activity against Staphylococcus aureus ATCC 25923 assessed as reduction in bacterial growth incubated for 18 to 20 hrs by broth microdilution assay; type: functional; settings: time 18-20 hrs
Acinetobacter baumannii [9] = test: Antibacterial activity against Acinetobacter baumannii ATCC 19606 assessed as reduction in microbial growth after 16 hrs by broth microdilution method; type: functional
Pseudomonas aeruginosa [10] = test: Antibacterial activity against Pseudomonas aeruginosa PAO1 assessed as bacterial growth inhibition by CLSI protocol based microdilution method; type: functional
Mu-type opioid receptor = Mu-type opioid receptor (Homo sapiens, UniProt P35372); test: Agonist activity at MOR (unknown origin); type: functional
[11] = target: Amyloid-beta precursor protein (Homo sapiens) (UniProt P05067); test: Inhibition of amyloid beta42 (unknown origin) aggregation at 10 uM measured after 5 mins by ThT fluorescence based assay relative to control
HeLa = test: Antiproliferative activity against human HeLa cells assessed as reduction in cell viability by MTT assay; type: functional, cell-based
[12] = Half life in human plasma; type: ADME, cell-free
[13] = target: Tyrosine-protein kinase FRK (Homo sapiens, UniProt P42685); test: Inhibition of FRK (unknown origin)
Escherichia coli [14] = test: Antibacterial activity against Escherichia coli ATCC 25922 assessed as bacterial growth inhibition; type: functional
[15] = Binding affinity to SETD8 (unknown origin) assessed as dissociation constant; set-up: species or system Homo sapiens

Melanocortin receptor 3, sequence (P41968 whole entry): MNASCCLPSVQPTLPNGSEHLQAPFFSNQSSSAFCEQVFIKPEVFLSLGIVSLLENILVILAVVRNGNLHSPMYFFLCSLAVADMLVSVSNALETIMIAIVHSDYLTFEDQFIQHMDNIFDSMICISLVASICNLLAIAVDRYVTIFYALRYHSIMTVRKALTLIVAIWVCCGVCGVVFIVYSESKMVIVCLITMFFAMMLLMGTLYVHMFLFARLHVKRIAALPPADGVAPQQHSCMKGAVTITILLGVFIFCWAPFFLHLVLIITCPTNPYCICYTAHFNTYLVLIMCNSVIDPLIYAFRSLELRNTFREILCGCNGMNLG
Mu-type opioid receptor, sequence (P35372 whole entry): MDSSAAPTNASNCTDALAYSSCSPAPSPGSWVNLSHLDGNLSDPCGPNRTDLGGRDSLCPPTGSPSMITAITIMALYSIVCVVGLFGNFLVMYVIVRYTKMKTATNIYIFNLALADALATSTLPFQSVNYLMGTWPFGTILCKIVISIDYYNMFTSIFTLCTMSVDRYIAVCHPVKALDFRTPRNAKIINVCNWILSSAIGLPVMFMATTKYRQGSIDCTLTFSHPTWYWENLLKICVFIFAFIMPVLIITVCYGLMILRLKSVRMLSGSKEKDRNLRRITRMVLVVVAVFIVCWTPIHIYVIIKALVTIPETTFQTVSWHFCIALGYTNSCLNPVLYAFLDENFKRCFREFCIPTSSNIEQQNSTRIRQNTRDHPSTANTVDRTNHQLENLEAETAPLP
Tyrosine-protein kinase FRK, sequence (P42685 whole entry): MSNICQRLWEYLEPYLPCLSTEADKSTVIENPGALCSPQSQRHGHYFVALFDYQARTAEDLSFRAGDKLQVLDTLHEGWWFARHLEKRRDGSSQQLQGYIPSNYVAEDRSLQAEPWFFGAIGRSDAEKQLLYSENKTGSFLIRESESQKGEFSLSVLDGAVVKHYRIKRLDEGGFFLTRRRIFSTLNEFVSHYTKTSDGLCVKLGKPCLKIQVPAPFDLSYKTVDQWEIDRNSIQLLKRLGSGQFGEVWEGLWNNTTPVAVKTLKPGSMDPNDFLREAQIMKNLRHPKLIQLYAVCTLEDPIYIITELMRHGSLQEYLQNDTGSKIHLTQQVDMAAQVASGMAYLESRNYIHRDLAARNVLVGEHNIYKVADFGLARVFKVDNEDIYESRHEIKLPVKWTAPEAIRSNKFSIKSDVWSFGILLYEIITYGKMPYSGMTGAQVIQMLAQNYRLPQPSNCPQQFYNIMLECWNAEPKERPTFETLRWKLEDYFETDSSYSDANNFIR
G-protein coupled receptor 52, sequence (Q9Y2T5 whole entry): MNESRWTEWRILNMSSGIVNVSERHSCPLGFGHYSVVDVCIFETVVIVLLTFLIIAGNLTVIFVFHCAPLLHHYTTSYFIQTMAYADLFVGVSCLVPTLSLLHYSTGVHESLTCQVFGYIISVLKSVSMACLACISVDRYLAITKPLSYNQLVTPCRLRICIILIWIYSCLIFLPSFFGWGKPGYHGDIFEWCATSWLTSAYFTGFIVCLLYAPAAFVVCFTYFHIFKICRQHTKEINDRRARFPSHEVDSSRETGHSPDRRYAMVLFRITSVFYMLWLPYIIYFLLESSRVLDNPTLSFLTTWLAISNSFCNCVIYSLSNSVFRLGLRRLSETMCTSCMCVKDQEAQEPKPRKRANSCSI
Amyloid-beta precursor protein (Homo sapiens), sequence (P05067 whole entry): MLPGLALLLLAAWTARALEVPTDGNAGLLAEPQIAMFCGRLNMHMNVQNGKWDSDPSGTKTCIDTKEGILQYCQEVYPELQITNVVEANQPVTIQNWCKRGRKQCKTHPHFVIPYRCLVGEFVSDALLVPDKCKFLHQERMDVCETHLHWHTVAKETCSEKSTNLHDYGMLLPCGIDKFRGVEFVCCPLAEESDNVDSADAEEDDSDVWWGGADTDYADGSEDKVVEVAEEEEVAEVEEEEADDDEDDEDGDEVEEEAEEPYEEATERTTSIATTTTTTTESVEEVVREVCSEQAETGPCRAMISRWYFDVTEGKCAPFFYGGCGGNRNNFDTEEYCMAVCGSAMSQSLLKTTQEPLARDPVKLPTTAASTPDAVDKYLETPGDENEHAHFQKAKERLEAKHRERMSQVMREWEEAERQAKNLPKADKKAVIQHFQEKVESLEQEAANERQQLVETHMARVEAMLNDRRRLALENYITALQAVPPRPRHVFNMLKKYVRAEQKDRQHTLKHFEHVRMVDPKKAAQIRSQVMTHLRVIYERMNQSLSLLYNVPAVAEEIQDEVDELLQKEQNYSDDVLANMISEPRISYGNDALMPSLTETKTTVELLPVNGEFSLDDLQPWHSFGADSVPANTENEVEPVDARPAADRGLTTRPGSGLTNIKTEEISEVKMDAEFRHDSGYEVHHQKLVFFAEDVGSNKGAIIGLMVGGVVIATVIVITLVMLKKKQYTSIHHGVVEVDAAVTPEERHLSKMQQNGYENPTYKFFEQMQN

## N[C@H]1C[C@@H](C(=O)O)C[C@@H]1F
[1]
  IC50: 50 nM

## CC(=O)N[C@@H](Cc1cnc[nH]1)C(=O)N[C@H](Cc1ccccc1)C(=O)N[C@@H](CCCN=C(N)N)C(=O)N[C@@H](Cc1c[nH]c2ccccc12)C(N)=O
Melanocortin receptor 3
  IC50: 560 nM

## CSCC[C@H](NC(=O)[C@@H]1CCCN1C(=O)CNC(=O)[C@H](CCCCN)NC(=O)[C@H](Cc1cnc[nH]1)NC(=O)[C@H](CO)NC(=O)[C@H](CC(C)C)NC(=O)[C@H](CCCNC(=N)N)NC(=O)[C@@H]1CCCN1C(=O)[C@H](CCCNC(=N)N)NC(=O)[C@@H](N)CCC(N)=O)C(=O)N1CCC[C@H]1C(=O)N[C@@H](Cc1ccccc1)C(=O)O
[2]
  EC50: 1.4 nM

## N[C@H]1C=C(C(=O)O)C[C@@H]1F
[1]
  IC50: 20 nM

## O=C[C@H](C[C@@H]1CCNC1=O)NC(=O)[C@H](Cc1cccc(F)c1)NC(=O)c1cc2ccccc2[nH]1
Replicase polyprotein 1a
  IC50: 40 nM

## O=C[C@H](C[C@@H]1CCNC1=O)NC(=O)[C@H](CC1CCCCC1)NC(=O)c1cc2ccccc2[nH]1
Replicase polyprotein 1a
  IC50: 53 nM

## Cc1ccc(C[C@H](NC(=O)[C@@H](Cc2ccccc2)NC(=O)[C@@H](Cc2c[nH]c3ccccc23)NC(=O)[C@@H](N)CCCN)C(=O)N[C@H](Cc2ccccc2)C(=O)N[C@@H](Cc2cn(Cc3ccccc3)cn2)C(N)=O)cc1
Candida albicans
  IC50: 15.3 µg/mL (≈ 15.3 µM)

## CCCCc1ccc(-n2cnc(C[C@H](NC(=O)[C@H](Cc3c[nH]c4ccccc34)NC(=O)[C@@H](N)Cc3cn(-c4ccc(CCCC)cc4)cn3)C(=O)NCc3ccccc3)c2)cc1
Cryptococcus neoformans
  MIC: 2.46 µg/mL (≈ 2.96 µM)

## CC(C)(C)c1cc(Cn2cnc(C[C@H](NC(=O)[C@@H](N)Cc3c[nH]c4ccccc34)C(=O)NCc3ccccc3)c2)cc(C(C)(C)C)c1
Enterococcus faecalis
  MIC: 8 µg/mL (≈ 12.6 µM)
Staphylococcus aureus [3]
  MIC: 4.4 µg/mL

## CC(C)C[C@@H]1NC(=O)[C@@H](Cc2ccccc2)NC(=O)[C@@H](CCN)NC(=O)[C@@H](NC(=O)[C@H](CCN)NC(=O)[C@@H](NC(=O)[C@H](CCN)NC(=O)C[C@H](CN)C2CCCCC2)[C@@H](C)O)CCNC(=O)[C@H]([C@@H](C)O)NC(=O)[C@H](CCN)NC(=O)[C@H](CCN)NC1=O
Escherichia coli [4]
  MIC: 0.06 µg/mL
Klebsiella pneumoniae
  MIC: 0.125 µg/mL
Pseudomonas aeruginosa [5]
  MIC: 0.06 µg/mL
Acinetobacter baumannii [6]
  MIC: 0.25 µg/mL

## CC[C@H](C)[C@H](NC(=O)[C@H](CC1CCCCC1)NC(=O)[C@@H](Cc1c[nH]c2ccccc12)NC(=O)[C@@H](N)CCCN)C(=O)N[C@H](Cc1ccccc1)C(=O)N[C@@H](Cc1cn(Cc2ccccc2)cn1)C(N)=O
Candida albicans
  IC50: 1 µg/mL (≈ 1.04 µM)

## CC(=O)N[C@@H](Cc1c[nH]cn1)C(=O)N[C@H](Cc1ccc(I)cc1)C(=O)N[C@@H](CCCNC(=N)N)C(=O)N1Cc2ccccc2C[C@H]1C(N)=O (Ac-H[dPhe(4-I)]R[Tic]-NH2)
Melanocortin receptor 3
  IC50: 290 nM

## CC(=O)N[C@@H](Cc1ccncc1)C(=O)N[C@H](Cc1ccc(I)cc1)C(=O)N[C@@H](CCCNC(=N)N)C(=O)N[C@@H](Cc1c[nH]c2ccccc12)C(N)=O (Ac-[4Pal][dPhe(4-I)]RW-NH2)
Melanocortin receptor 3
  IC50: 7 nM

## C=CCCC[C@](C)(NC(=O)[C@H](CCCCN)NC(=O)[C@H](CC(C)C)NC(=O)[C@@H](N)Cc1ccccc1)C(=O)N[C@@H](CC(C)C)C(=O)N[C@@H](CCCCN)C(=O)N[C@@H](CCCCN)C(=O)N[C@@H](CC(C)C)C(=O)N[C@@H](CC(C)C)C(N)=O (H-FLK[S5]LKKLL-NH2)
Escherichia coli [7]
  MIC: 8 µg/mL (≈ 7.01 µM)
Staphylococcus aureus [8]
  MIC: 4 µg/mL (≈ 3.51 µM)
Acinetobacter baumannii [9]
  MIC: 4 µg/mL
Pseudomonas aeruginosa [10]
  MIC: 8 µg/mL (≈ 7.01 µM)

## CN(CC(=O)O)C(=O)[C@H](Cc1ccccc1)NC(=O)[C@@H](CCCN=C(N)N)NC(=O)[C@@H](N)Cc1ccc(O)cc1 (H-Y[dR]F[Sar]-OH)
Mu-type opioid receptor
  EC50: 90 nM

## CC[C@H](C)[C@H](NC(=O)[C@@H](NC(=O)[C@H](N)Cc1ccccc1)C(C)C)C(=O)N[C@@H](C)C(N)=O (H-[dF]VIA-NH2)
[11]
  inhibition: 100%

## CC[C@H](C)[C@H]1C(=O)N[C@@H](C)C(=O)N(C)[C@@H](CC(C)C)C(=O)N[C@@H](Cc2ccc(OC)cc2)C(=O)N(C)[C@H](C)C(=O)O[C@H](C)[C@H](N(C)C(=O)[C@H](CC(C)C)N(C)C(=O)[C@H](COC)N(C)C(=O)[C@@H](OC(=O)[C@H](C(C)C)N(C)C)C(C)C)C(=O)N(C)[C@@H](COC)C(=O)N1C (NMe2Val-[Hiv][NMeS](Me)[NMeL][NMeT][NMeS](Me)[NMeI]A[NMeL]Y(Me)[dNMeA]; ester 4-C)
HeLa
  IC50: 1.4 nM

## CCCCCCCC(=O)N[C@@H](Cc1cnc[nH]1)C(=O)N[C@H](Cc1ccccc1)C(=O)N[C@@H](CCCNC(=N)N)C(=O)N[C@@H](Cc1ccc(-c2ccccc2)cc1)C(N)=O (Octanoyl-H[dF]R[Bip]-NH2)
Melanocortin receptor 3
  IC50: 50 nM

## N=C(N)NCCC[C@@H]1C(=O)N[C@@H](Cc2ccccc2)C(=O)N(CC(N)=O)CCNC(=O)NCCCCCCN1C(=O)[C@@H](N)Cc1ccc(O)cc1 (mixture of isomers)
Mu-type opioid receptor
  EC50: 46 nM

## CC[C@H](C)[C@H]1C(=O)N2CCC[C@H]2C(=O)O[C@H](C(C)(C)C)C[C@@H](C)C[C@H](O)[C@H](C)C2=N[C@@H](CCC(=O)N[C@@H](Cc3ccc(OC)cc3)C(=O)N(C)[C@@H](C)C(=O)N1C)CS2 [APRATOXIN S4]
Replicase polyprotein 1a
  IC50: 170 nM

## C[C@@H](O)[C@@H]1NC(=O)[C@H](CCCCN)NC(=O)[C@@H](Cc2c[nH]c3ccccc23)NC(=O)[C@H](Cc2ccccc2)NC(=O)[C@@H](NC(=O)[C@H](N)Cc2ccccc2)CSSC[C@@H](C(=O)N[C@H](CO)[C@@H](C)O)NC1=O [OCTREOTIDE]
[12]
  half-life: 1.5 h

## Nc1nc2[nH]cc(CCc3ccc(C(=O)N[C@@H](CCC(=O)O)C(=O)O)cc3)c2c(=O)[nH]1 [PEMETREXED]
[13]
  IC50: 42 nM

## H-FLKLLKKLL-NH2
Escherichia coli [7]
  MIC: 32 µg/mL
Staphylococcus aureus [8]
  MIC: 16 µg/mL
Acinetobacter baumannii [9]
  MIC: 16 µg/mL
Pseudomonas aeruginosa [10]
  MIC: 8 µg/mL

## H-KKKKKKAAFAAWAAFAA-NH2
Escherichia coli [14]
  MIC: 1.6 µM

## H-KRHRKVLR-OH
[15]
  Kd: 46000 nM
